Converted amounts (≈) assume the structure as drawn. Bridge positions count the residues as written; N and C are the ends. Square brackets hold non-standard residues; d marks the D form. Peptide text beside a SMILES is read from it.
Legend:
[1] = Thioflavin T aggregation in LUVs; assay type: physicochemical; details: tested 5–50 μM, 25 °C, pH 7.4, ThT emission 482 nm; for peptide concentration at which oligomerization (ThT fluorescence plateau) was observed: DOPE/DOPG/CL (63/23/12) LUVs; for peptide concentration at which aggregation (increase of ThT fluorescence) was observed: DOPG/CL (58/42) LUVs
Text: We used large unilamellar vesicles (LUVs) made of phosphatidylethanolamine (DOPE), phosphatidylglycerol (DOPG), and cardiolipin (CL) (63/23/12) to mimic lipid composition of the cytoplasmic membrane of Gram-negative bacteria. Gram-positive membranes were otherwise mimicked using LUVs made of DOPG and CL (58/42).
TEXT PRINTED IN THE PICTURE: (c) 9: DOPG/CL mimicking Gram-positive membrane: θ222/ θ208: 1.7 | (c) 12: DOPG/CL mimicking Gram-positive membrane: θ222/ θ208: 2.6 | (c) 17: DOPG/CL mimicking Gram-positive membrane: θ222/ θ208: 1.9 | (f) 9: DOPE/DOPG/CL mimicking Gram-negative membrane: θ222/ θ208: 1.8 | (f) 12: DOPE/DOPG/CL mimicking Gram-negative membrane: θ222/ θ208: 2.1 | (f) 17: DOPE/DOPG/CL mimicking Gram-negative membrane: θ222/ θ208: 1.7
The fluorescent dye Thioflavin T (ThT) is widely used to quantify peptide aggregation in the presence of bacterial membranes represented by LUVs (Gram-positive, DOPG/CL, 58/42 ratio in moles; Gram-negative DOPG/DOPE/CL, 63/23/12 ratio in moles). Once lipid films were prepared as described above, they were hydrated with 100 mM NaCl, 10 mM Tris-HCl, […] ThT buffer, pH = 7.4, vortexed for 1 h, freeze-thawed six times, and extruded 10 times through polycarbonate membranes with 0.1 μm diameter pores.[80] Peptides were dissolved in water to have a stock solution of 2 mM. Peptide aggregation was quantified by treating LUVs with peptide concentrations of 5, 10, 15, 20, 30, and 50 μM. Fluorescence was measured before and after the addition of peptide at 25 °C using a Varian Cary Eclipse fluorescence spectrometer. ThT fluorescence emission was measured at 482 nm (slit width, 5 nm) after excitation at 450 nm (slit width, 10 nm). In the presence of aggregated peptides, ThT combines with them giving an excitation maximum at 450 nm and an increased emission at 482 nm.[62] Peptide aggregation was calculated as %A = (Ff – F0)/(Fmax – F0) × 100, where Ff indicates the value of fluorescence after peptide addition, F0 is the initial fluorescence in the absence of peptide, and Fmax is the fluorescence maximum obtained immediately after peptide addition.

P. aeruginosa ATCC 27853 = assay type: cell-based, Pseudomonas aeruginosa
How it was run: (§1)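 MICs were determined by broth microdilution, with bacteria at a final 1 × 10^6 CFU/mL and peptides tested from 100 to 0.78 μM.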

E. coli ATCC 25922 = assay type: cell-based, Escherichia coli
How it was run: as §1

A. baumannii ATCC 19606 = assay type: cell-based, Acinetobacter baumannii
How it was run: as §1

[2] = Peptide aggregation in LPS (ThT fluorescence); assay type: physicochemical; details: peptide 20 μM, LPS 1 mg/mL, ThT 25 μM, 1 h incubation, ThT emission 482 nm
Method: The peptides were incubated with LPS (1 mg/mL) at a concentration of 20 μM, and ThT (25 μM) was used as a fluorophore to measure aggregation.
Figure 5 Aggregate formation in the interaction between peptides 9 (a), 12 (b), and 17 (c) (20 μM) and LPS (1 mg/mL) monitored by ThT fluorescence (25 μM). Peptide alone and ThT alone were used as controls.
After 1 h, we evaluated the peptide aggregation measuring ThT fluorescence emission at 482 nm (slit width, 5 nm) after excitation at 450 nm (slit width, 10 nm). ThT spectra at 25 μM, and peptide alone at 20 μM were carried out as control.

[3] = system: S. epidermidis ATCC 12228; assay type: cell-based, Staphylococcus epidermidis
How it was run: as §1

SMILES | peptide concentration at which oligomerization (ThT fluorescence plateau) was observed [1] [µM] | peptide concentration at which aggregation (increase of ThT fluorescence) was observed [1] [µM] | MIC P. aeruginosa ATCC 27853 (P. aeruginosa ATCC 27853) [µM] | MIC E. coli ATCC 25922 (E. coli ATCC 25922) [µM] | MIC A. baumannii ATCC 19606 (A. baumannii ATCC 19606) [µM] | aggregation in the presence of LPS [2] | MIC S. epidermidis ATCC 12228 [3] [µM]
CC[C@H](C)[C@H](NC(=O)[C@H](CCCNC(=N)N)NC(=O)[C@@H]1CCCCn2cc(nn2)C[C@H](NC(=O)[C@H](Cc2ccccc2)NC(=O)[C@H](Cc2c[nH]c3ccccc23)NC(=O)[C@@H]2CCCN2C(=O)[C@@H](NC(=O)[C@@H](N)Cc2ccccc2)C(C)C)C(=O)N[C@@H](CCCCN)C(=O)N[C@@H](Cc2ccccc2)C(=O)NC(CC(C)C)C(=O)N1)C(=O)N[C@@H](CC(C)C)C(N)=O (stereo in doubt) [compound 17] | 10 | 50 | >100 | >100 | 25 (≈ 42.9 µg/mL) | higher ability to aggregate | 1.56 (≈ 2.67 µg/mL)
CC[C@H](C)[C@H](NC(=O)[C@H](CCCNC(=N)N)NC(=O)[C@@H]1CCC(=O)NCCCC[C@H](NC(=O)[C@H](Cc2ccccc2)NC(=O)[C@H](Cc2c[nH]c3ccccc23)NC(=O)[C@@H]2CCCN2C(=O)[C@@H](NC(=O)[C@@H](N)Cc2ccccc2)C(C)C)C(=O)N[C@@H](CCCCN)C(=O)N[C@@H](Cc2ccccc2)C(=O)N[C@H](CC(C)C)C(=O)N1)C(=O)N[C@@H](CC(C)C)C(N)=O [compound 12] (H-FVPWFKKF[dL]ERIL-NH2; lactam 6-10) | 10 | 30 | 100 (≈ 170 µg/mL) | 25 (≈ 42.6 µg/mL) | 3.12 (≈ 5.32 µg/mL) | lowest aggregation | 3.12 (≈ 5.32 µg/mL)

From PMC8389922, “First-in-Class Cyclic Temporin L Analogue: Design, Synthesis, and Antimicrobial Assessment” (Journal of Medicinal Chemistry, 2021)
